Where two headings read alike, the source gives them in different places.
Tests used:
[1] = 25 mg/kg intravenously, an hour following injection
Procedure: An hour following injection, the animals were sacrificed and plasma and the brain were collected and frozen immediately. Following tissue and plasma extractions, concentrations of the compounds in brain and plasma were measured using LC-MS/MS. The brain:plasma ratio was calculated as the ratio of measured concentrations in the brain and plasma.

mice = assay: Oral dose giving maximal analgesia; assay type: in vivo
[2] = Pharmacokinetics following oral (PO) dosing; assay type: in vivo, Sprague-Dawley rats; parameters: Cmax: unit: ng/mL; details: for Tmax: median value; for bioavailability: po, 5 mg/kg; for AUC(0-inf) / half-life: * n = 2; for half-life: read-out: T1/2(z)
Source text: (§1) There were 3 rats/group. All animals were food fasted overnight. […] The predose sample was collected from the JVC.
(§2) Following the last collection point, the animals were euthanized.

[3] = Pharmacokinetics following intravenous (IV) dosing; assay type: in vivo, Sprague-Dawley rats; parameters: Cmax: unit: ng/mL; details: hydroxycodone series, 1 mg/kg IV, Mean ± SD
Source text: as §1, §2

squirrel monkeys = assay: Monkey self-administration model of addictive potential
Source text: Dose-related effects of the test articles were examined, using two or more doses of each drug in 3-4 subjects in a double alternation schedule in which each unit dose (or vehicle) was used in two consecutive sessions before a change in unit dose.
Addictive potential of opioid compounds and opioid conjugates of the invention may be assessed through the use of squirrel monkey models as known in the art.
Under the double alternation schedule, each unit dose (or vehicle) was available for intravenous self-administration for two consecutive sessions before the unit dose was changed. In this way, it was possible to establish the function relating unit dose of intravenous drug to (i) number of injections per session, and/or (ii) the percentage of total responses that occur on the lever leading to self-administration (injection-lever responding, % ILR). Unit doses of drugs ranged from 0.01 to 3.2 mg/kg/injection.

CD-1 male mice = assay: Phenylquinone writhing analgesic assay; assay type: in vivo; details: Mus musculus; mPEGn-O-HydroxyCodone series
Procedure: The assay utilized CD-1 male mice (5-8 mice per group), each mouse being approximately 0.020-0.030 kg on the study day. Mice were treated according to standard protocols. Mice were given a single “pretreatment” dose of a compound lacking covalent attachment of a water-soluble, non-peptidic oligomer (i.e., non-PEG oligomer-modified parent molecule), a corresponding version comprising the compound covalently attached to a water-soluble, non-peptidic oligomer (i.e., the conjugate), or control solution (IV, SC, IP or orally) thirty minutes prior to the administration of the phenylquinone (PQ) solution. Each animal was given an IP injection of an irritant (phenylquinone, PQ) that induces “writhing” which may include: contractions of the abdomen, twisting and turning of the trunk, arching of the back, and the extension of the hindlimbs. Each animal was given an IP injection of PQ (1 mg/kg PQ, 0.1 mL/10 g bodyweight). After the injection, the animals were returned to their observation enclosure and their behavior was observed. Contractions were counted between 35 and 45 minutes after the ‘pretreatment”. The animals were used once. Each tested article was dosed at a range between 0.1 and 100 mg/kg (n=5-10 animals/dose).

human mu opioid receptor [4] = target: T1, human mu opioid receptor (Homo sapiens, UniProt P35372); assay: cell-based; details: for Emax: read-out: % max effect, mu opioid receptor
T1 construct: expressed in transfected cells; host or cells: CHO cells
Procedure: Studies were conducted in CHO cells heterologously expressing the cloned human mu, kappa or delta opioid receptors. cAMP was measured using a cAMP HiRange homogenous time-resolved fluorescence assay (HTRF Assay), that is based on a competitive immunoassay principle (Cisbio, Cat.#62AM6PEC).
Briefly, suspensions of cells expressing either the mu, kappa or delta opioid receptors were prepared in buffer containing 0.5 mM isobutyl-methyl xanthine (IBMX). […] EC50 values were calculated for each compound from a sigmoidal dose-response plot of concentrations versus maximum response. To determine if the compounds behaved as full or partial agonists in the system, the maximal response at the highest tested concentrations of compounds were compared to that produced by a known full agonist.

human mu opioid receptor [5] = target: T1, human mu opioid receptor; assay: biochemical; assay type: binding
Procedure: Radioligand displacement was measured using scintillation proximity assays (SPA).
Briefly, serial dilutions of the test compounds were placed in a 96-well plate to which were added SPA beads, membrane and radioligand. The assay conditions for each opioid receptor subtype are described in Table 10 below. The plates were incubated for 8 hours-overnight at room temperature, spun at 1000 rpm to pellet the SPA beads, and radioactivity was measured using the TopCount® microplate Scintillation counter. Specific binding at each concentration of test compound was calculated by subtracting the non-specific binding measured in the presence of excess cold ligand. IC50 values were obtained by non-linear regression of specific binding versus concentration curves and Ki values were calculated using Kd values that were experimentally pre-determined for each lot of membrane preparations.

[6] = hydroxycodone series, 5.0 mg/kg oral, Mean ± SD
[7] = male, Sprague-Dawley, rat, plasma
[8] = male, Sprague-Dawley, rat, plasma, hydroxycodone series, 5.0 mg/kg oral, Mean ± SD
[9] = male, Sprague-Dawley, rat, plasma, hydroxycodone series, 5.0 mg/kg oral, Mean ± SD, read-out: Cmax
[10] = male, Sprague-Dawley, rat, plasma, hydroxycodone series, 5.0 mg/kg oral, read-out: Tmax (converted)

T1 sequence (P35372 whole entry): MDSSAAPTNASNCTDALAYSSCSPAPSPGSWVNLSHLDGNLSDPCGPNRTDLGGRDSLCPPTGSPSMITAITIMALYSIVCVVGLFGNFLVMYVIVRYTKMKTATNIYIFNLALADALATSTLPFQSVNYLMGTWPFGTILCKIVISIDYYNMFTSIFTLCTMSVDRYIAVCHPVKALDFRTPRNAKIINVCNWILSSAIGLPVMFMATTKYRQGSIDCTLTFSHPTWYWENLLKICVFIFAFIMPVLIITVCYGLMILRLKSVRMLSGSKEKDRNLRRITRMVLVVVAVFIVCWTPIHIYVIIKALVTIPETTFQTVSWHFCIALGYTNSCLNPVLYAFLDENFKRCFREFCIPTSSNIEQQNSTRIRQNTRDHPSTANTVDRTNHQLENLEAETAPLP

Compound: COCCOCCOCCO[C@H]1CC[C@@]2(O)[C@H]3Cc4ccc(O)c5c4[C@@]2(CCN3CC2CCC2)[C@H]1O5 [6-O-mPEG3-Nalbuphine]
- Brain:Plasma Ratios [1]: 0.23

Compound: COc1ccc2c3c1O[C@H]1C(=O)CC[C@@]4(O)[C@@H](C2)N(C)CC[C@]314 [Oxycodone, oxycodone, reference compound]
- oral dose at which maximal analgesia was obtained (mice): 14 mg/kg
- AUCall [2, 6]: 4520 ± 1660 ng·min/mL
- Cmax [2, 6]: 25.5 ± 1.86 ng/mL
- MRTlast [2, 6]: 179 ± 17.4 min
- Tmax ([2]; hydroxycodone series, 5.0 mg/kg oral): 15.0 min
- AUCall [3]: 12800 ± 1090 ng·min/mL
- AUCinf [3]: 13000 ± 1070 ng·min/mL
- CL [3]: 77.1 ± 6.26 mL/min/kg
- Cmax [3]: 495 ± 56.0 ng/mL
- MRTlast [3]: 37.0 ± 1.28 min
- T1/2(z) [3]: 47.0 ± 3.99 min
- subjects showing addictive behavior (squirrel monkeys; 0.01 mg/kg/injection): 25%
- injection lever responses (% ILR) (squirrel monkeys; 0.03 mg/kg/injection): 100%
- subjects showing addictive behavior (squirrel monkeys; 0.03 mg/kg/injection): 100%
- injection lever responses (% ILR) (squirrel monkeys; 0.1 mg/kg/injection): 100%
- ED50 (CD-1 male mice): 0.619 mg/kg

Compound: COCCOC1CCC2(O)C3Cc4ccc(OC)c5c4C2(CCN3C)C1O5 (stereo not drawn) [α-6-mPEG1-O-hydroxycodone, α-6-mPEG1-O-oxycodone]
- Emax (human mu opioid receptor [4]; maximal response at the highest tested concentration): 102%
- EC50 (human mu opioid receptor [4]; read-out: EC50, mu opioid receptor): 3840 nM
- bioavailability [2, 7]: 2.1%
- AUC [2, 8]: 17.5 ng·h/mL
- MRT last [2, 8]: 66.8 min
- AUC(0-inf) [2, 8]: 19.2 ng·h/mL
- half-life [2, 8]: 57.7 min
- Cmax [2, 9]: 14.3 ± 6.43 ng/mL
- Tmax [2, 10]: 15 min
- Ki (human mu opioid receptor [5]; CHO-K1 membranes, [3H]DAMGO 6 nM, read-out: Ki, Mu opioid receptor): 654 nM
- ED50 (CD-1 male mice): 6.06 mg/kg

Compound: COCCOCCOCCOCCOC1CCC2(O)C3Cc4ccc(OC)c5c4C2(CCN3C)C1O5 (stereo not drawn) [α-6-mPEG4-O-hydroxycodone, α-6-mPEG4-O-oxycodone]
- EC50 (human mu opioid receptor [4]): 3720 nM
- Emax (human mu opioid receptor [4]): 109%
- bioavailability [2, 7]: 11%
- AUC [2, 8]: 106 ng·h/mL
- MRT last [2, 8]: 96.6 min
- AUC(0-inf) [2, 8]: 88 ng·h/mL
- half-life [2, 8]: 70.3 min
- Cmax [2, 9]: 55.8 ± 4.69 ng/mL
- Tmax [2, 10]: 15 min
- AUC [3, 7]: 192 ng·h/mL
- AUC(0-inf) [3, 7]: 193 ng·h/mL
- MRT last [3, 7]: 35.6 min
- clearance [3, 7]: 86.5 ± 6.36 mL/min/kg
- Cmax ([3]; male, Sprague-Dawley, rat, plasma, read-out: Cmax): 537 ± 31 ng/mL
- half-life ([3]; male, Sprague-Dawley, rat, plasma, read-out: T1/2(z)): 43.6 ± 3.27 min
- Vd ([3]; male, Sprague-Dawley, rat, plasma, read-out: Vss): 3.34 ± 0.113 L/kg
- Ki (human mu opioid receptor [5]): 893 nM
- ED50 (CD-1 male mice): 17.3 mg/kg
